# Measured values reported in US10077261B2, “Imidazolin-5-one derivative useful as FASN inhibitors for the treatment of cancer” (Janssen Pharmaceutica NV, priority 2012, dated 2018).
# How the values were obtained:
# [1] = system: A2780 ovarian cells; test: A2780 ovarian cell proliferation assay in lipid reduced medium, without palmitate (MTT); type: cell-based; settings: Homo sapiens, A2780, 96 h; read-out: pIC50 A2780 Ovarian Cell, Without Palmitate (converted)
# Procedure: (§1) The biological assays described below correspond to comparative assays for ovarian cell proliferation. […] Compounds active in the absence of palmitate would not be expected to be active in the control.
# (§2) 2500 cells were seeded in a 96-well clear well plate in 200 μL RPMI1640 with 10% Fetal Calf Serum (Hyclone), and incubated at 37° C., 5% CO2. Blanks were wells without cells. The next day the culture medium was aspirated and replaced by 160 μL culture medium with 10% Lipid-Reduced Serum (LRS, Hyclone). 20 μL test compound (at concentrations of 30 μM, 10 μM, 3 μM, 1 μM, 0.30 μM, 0.10 μM, 0.03 μM and 0.01 μM)/DMSO dilution followed by 20 μL ethanol-BSA solution were added to a final concentrations of 0.2% DMSO, 0.2% fatty-acid-free BSA, 0.25% ethanol. After 96 h incubation an MTT assay was performed. The absorbance was measured at 544 nm on a SPECTRAMAX brand microplate reader (Molecular Devices).
# where mLC and mHC were the means of the low control wells and high control wells on the plate, after manual exclusion of outliers. A plot of Controlmin versus test compound concentration was fitted to a 4-parameter logistic curve using a non-linear least squares regression method.
# (§3) Representative compounds of the present invention were tested according to the procedure as described in Biological Example 3 above, with results as listed in Table 8, below.
# [2] = system: A2780 ovarian cells; test: A2780 ovarian cell proliferation assay in lipid reduced medium, with palmitate (MTT); type: cell-based; settings: Homo sapiens, A2780, 96 h; read-out: pIC50 A2780 Ovarian Cell, With Palmitate (converted)
# Procedure: as §1
# as §2, with “palmitate-BSA” for “ethanol-BSA”, “DMSO, 25 μM palmitate (Sigma, P0500, 10 mM stock solution in ethanol)” for “DMSO,”, “incubation,” for “incubation”
# A best fit curve was fitted by a minimum sum of squares method, plotting Controlmin versus test compound concentration.
# as §3
IC50 [1] [µM],IC50 [2] [µM],Compound
> 3.02,> 3.02,O=C(C1CC1)N1CC(CN2C(=O)C3(CC3)N=C2c2ccc(-c3ccc4ccc(=O)[nH]c4c3)cc2)C1 [compound 840]
0.372,> 3.02,"Cc1cc(-c2ccc3c(c2)c(C#N)nn3C)ccc1C1=NC2(CC2)C(=O)N1CC1CN(C(=O)C2CC2)C1 [compound 836, 5-(4-(6-((1-(cyclopropanecarbonyl)azetidin-3-yl)methyl)-7-oxo-4,6-diazaspiro[2.4]hept-4-en-5-yl)-3-methylphenyl)-1-methyl-1H-indazole-3-carbonitrile]"
> 3.02,> 3.02,"N#CCCn1cc2cc(-c3ccc(C4=NC5(CC5)C(=O)N4CC4CN(C(=O)C5CC5)C4)cc3)ccc2n1 [compound 842, 3-(5-(4-(6-((1-(cyclopropanecarbonyl)azetidin-3-yl)methyl)-7-oxo-4,6-diazaspiro[2.4]hept-4-en-5-yl)phenyl)-2H-indazol-2-yl)propanenitrile]"
0.0363,> 10,"O=C(C1CC1)N1CC[C@@H](CN2C(=O)C3(CC3)N=C2c2ccc(-c3ccc4scnc4c3)cc2)C1 [compound 71, 5-[4-(1,3-Benzothiazol-5-yl)phenyl]-6-{[(3R)-1-(cyclopropylcarbonyl)pyrrolidin-3-yl]methyl}-4,6-diazaspiro[2.4]hept-4-en-7-one]"
0.204,> 10,"O=C(C1CC1)N1CC[C@H](CN2C(=O)C3(CC3)N=C2c2ccc(-c3ccc4[nH]ncc4c3)cc2)C1 [compound 431, 6-{[(3S)-1-(Cyclopropylcarbonyl)pyrrolidin-3-yl]methyl}-5-[4-(1H-indazol-5-yl)phenyl]-4,6-diazaspiro[2.4]hept-4-en-7-one]"
0.132,> 10,"Cn1ncc2cc(-c3ccc(C4=NC5(CC5)C(=O)N4C[C@@H]4CCN(C(=O)C5CC5)C4)cc3)ccc21 [compound 28, 6-{[(3R)-1-(Cyclopropylcarbonyl)pyrrolidin-3-yl]methyl}-5-[4-(1-methyl-1H-indazol-5-yl)phenyl]-4,6-diazaspiro[2.4]hept-4-en-7-one]"
4.68,> 6.17,"Cn1ncc2cc(-c3ccc(C4=NC5(CC5)C(=O)N4CC4CCN(C(=O)C5CC5)CC4)cc3)ccc21 [compound 19, 6-{[1-(Cyclopropylcarbonyl)piperidin-4-yl]methyl}-5-[4-(1-methyl-1H-indazol-5-yl)phenyl]-4,6-diazaspiro[2.4]hept-4-en-7-one]"
0.339,> 10,"O=C(C1CC1)N1CC[C@@H](CN2C(=O)C3(CC3)N=C2c2ccc(-c3ccc4occc4c3)cc2)C1 [compound 58, (R)-5-(4-(Benzofuran-5-yl)phenyl)-6-((1-(cyclopropanecarbonyl)pyrrolidin-3-yl)methyl)-4,6-diazaspiro[2.4]hept-4-en-7-one]"
1.02,> 10,"O=C(C1CC1)N1CC[C@@H](CN2C(=O)C3(CC3)N=C2c2ccc(-c3cccc(Cl)c3)cc2)C1 [compound 112, 5-(3′-Chlorobiphenyl-4-yl)-6-{[(3R)-1-(cyclopropylcarbonyl)pyrrolidin-3-yl]methyl}-4,6-diazaspiro[2.4]hept-4-en-7-one]"
0.0141,3.09,"O=C(C1CC1)N1CC(CN2C(=O)C3(CC3)N=C2c2ccc(-c3ccc(-c4cnn(C5CCC5)c4)cc3)cc2F)C1 [compound 329, 5-(4′-(1-cyclobutyl-1H-pyrazol-4-yl)-3-fluoro-[1,1′-biphenyl]-4-yl)-6-((1-(cyclopropanecarbonyl)azetidin-3-yl)methyl)-4,6-diazaspiro[2.4]hept-4-en-7-one]"
0.479,> 10,"Cn1ncc2cc(-c3ccc(C4=NC5(CCCC5)C(=O)N4C[C@@H]4CCN(C(=O)C5CC5)C4)cc3)ccc21 [compound 35, 3-{[(3R)-1-(Cyclopropylcarbonyl)pyrrolidin-3-yl]methyl}-2-[4-(1-methyl-1H-indazol-5-yl)phenyl]-1,3-diazaspiro[4.4]non-1-en-4-one]"
